Test results as given in the kinase profiling compilation of Christmann-Franck et al. (2016).

How the values were obtained:
Experiment in all cases: KINOMEscan competition binding
Details in all cases: compound 10.0 µM
CSNK1A1L (human) = CSNK1A1L (human) (UniProt Q8N752)
CSNK1G3 (human) = CSNK1G3 (human) (UniProt Q9Y6M4)
CSNK2A1 (human) = CSNK2A1 (human) (UniProt P68400)
[1] = system: EGFR (human), P00533 [T790M]
EIF2AK2 (human) = EIF2AK2 (human) (UniProt P19525)
ERBB3 (human) = ERBB3 (human) (UniProt P21860)
FGFR3 (human) = FGFR3 (human) (UniProt P22607)
INSR (human) = INSR (human) (UniProt P06213)
LIMK1 (human) = LIMK1 (human) (UniProt P53667)
MAP3K12 (human) = MAP3K12 (human) (UniProt Q12852)
MAP3K13 (human) = MAP3K13 (human) (UniProt O43283)
MAP3K2 (human) = MAP3K2 (human) (UniProt Q9Y2U5)
MAP3K5 (human) = MAP3K5 (human) (UniProt Q99683)
MAP3K9 (human) = MAP3K9 (human) (UniProt P80192)
MAPK13 (human) = MAPK13 (human) (UniProt O15264)
MAPK14 (human) = MAPK14 (human) (UniProt Q16539)
MAPK9 (human) = MAPK9 (human) (UniProt P45984)
MARK3 (human) = MARK3 (human) (UniProt P27448)
[2] = system: MET (human), P08581 [Y1235D]
MST1R (human) = MST1R (human) (UniProt Q04912)
NEK4 (human) = NEK4 (human) (UniProt P51957)
PIK3C2B (human) = PIK3C2B (human) (UniProt O00750)
PIK3C2G (human) = PIK3C2G (human) (UniProt O75747)
PIM2 (human) = PIM2 (human) (UniProt Q9P1W9)
PIP5K1A (human) = PIP5K1A (human) (UniProt Q99755)
PRKCH (human) = PRKCH (human) (UniProt P24723)
RET (human) = RET (human) (UniProt P07949)
RPS6KA1 KD2 (human) = RPS6KA1 KD2 (human) (UniProt Q15418)
SRC (human) = SRC (human) (UniProt P12931)
TBK1 (human) = TBK1 (human) (UniProt Q9UHD2)
TNK2 (human) = TNK2 (human) (UniProt Q07912)
TRPM6 (human) = TRPM6 (human) (UniProt Q9BX84)
KIT (human) = KIT (human) (UniProt P10721)

Chain of INSR (human) (P06213 whole entry, looked up): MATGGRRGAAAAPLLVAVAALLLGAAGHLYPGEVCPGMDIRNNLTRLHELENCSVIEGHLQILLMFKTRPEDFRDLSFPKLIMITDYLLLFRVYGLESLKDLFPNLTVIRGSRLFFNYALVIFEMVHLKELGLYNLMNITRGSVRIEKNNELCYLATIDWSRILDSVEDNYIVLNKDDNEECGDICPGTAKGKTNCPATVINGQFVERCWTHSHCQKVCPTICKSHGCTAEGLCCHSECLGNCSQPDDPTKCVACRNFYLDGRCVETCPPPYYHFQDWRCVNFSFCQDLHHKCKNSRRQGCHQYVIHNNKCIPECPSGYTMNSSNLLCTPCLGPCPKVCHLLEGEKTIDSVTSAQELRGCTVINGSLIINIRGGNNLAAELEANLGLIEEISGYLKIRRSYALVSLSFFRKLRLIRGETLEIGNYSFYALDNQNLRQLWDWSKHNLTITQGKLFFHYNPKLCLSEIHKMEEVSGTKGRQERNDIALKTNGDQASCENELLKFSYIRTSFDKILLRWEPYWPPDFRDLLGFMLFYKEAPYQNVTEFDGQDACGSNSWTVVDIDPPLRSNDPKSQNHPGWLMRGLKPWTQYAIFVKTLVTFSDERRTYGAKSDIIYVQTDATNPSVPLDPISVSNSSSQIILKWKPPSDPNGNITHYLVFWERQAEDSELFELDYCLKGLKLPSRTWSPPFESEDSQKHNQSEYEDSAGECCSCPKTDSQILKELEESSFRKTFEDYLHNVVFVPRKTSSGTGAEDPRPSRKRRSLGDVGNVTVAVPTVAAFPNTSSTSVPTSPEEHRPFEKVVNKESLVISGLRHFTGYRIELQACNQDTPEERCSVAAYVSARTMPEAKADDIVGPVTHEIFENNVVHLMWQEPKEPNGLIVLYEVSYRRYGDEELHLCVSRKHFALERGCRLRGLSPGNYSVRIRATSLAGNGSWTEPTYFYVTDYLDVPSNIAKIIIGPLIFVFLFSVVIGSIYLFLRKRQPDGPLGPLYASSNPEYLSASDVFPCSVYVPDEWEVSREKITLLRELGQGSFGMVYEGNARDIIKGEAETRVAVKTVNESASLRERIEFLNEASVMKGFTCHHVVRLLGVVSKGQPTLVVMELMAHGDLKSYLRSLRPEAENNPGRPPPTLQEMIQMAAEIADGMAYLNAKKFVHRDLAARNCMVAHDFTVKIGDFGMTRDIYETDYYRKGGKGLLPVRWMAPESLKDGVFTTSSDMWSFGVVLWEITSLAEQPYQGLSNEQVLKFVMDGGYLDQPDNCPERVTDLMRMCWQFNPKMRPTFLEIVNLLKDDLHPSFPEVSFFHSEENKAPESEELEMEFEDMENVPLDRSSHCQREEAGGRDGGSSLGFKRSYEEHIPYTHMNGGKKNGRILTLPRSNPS
Chain of MST1R (human) (Q04912 whole entry, looked up): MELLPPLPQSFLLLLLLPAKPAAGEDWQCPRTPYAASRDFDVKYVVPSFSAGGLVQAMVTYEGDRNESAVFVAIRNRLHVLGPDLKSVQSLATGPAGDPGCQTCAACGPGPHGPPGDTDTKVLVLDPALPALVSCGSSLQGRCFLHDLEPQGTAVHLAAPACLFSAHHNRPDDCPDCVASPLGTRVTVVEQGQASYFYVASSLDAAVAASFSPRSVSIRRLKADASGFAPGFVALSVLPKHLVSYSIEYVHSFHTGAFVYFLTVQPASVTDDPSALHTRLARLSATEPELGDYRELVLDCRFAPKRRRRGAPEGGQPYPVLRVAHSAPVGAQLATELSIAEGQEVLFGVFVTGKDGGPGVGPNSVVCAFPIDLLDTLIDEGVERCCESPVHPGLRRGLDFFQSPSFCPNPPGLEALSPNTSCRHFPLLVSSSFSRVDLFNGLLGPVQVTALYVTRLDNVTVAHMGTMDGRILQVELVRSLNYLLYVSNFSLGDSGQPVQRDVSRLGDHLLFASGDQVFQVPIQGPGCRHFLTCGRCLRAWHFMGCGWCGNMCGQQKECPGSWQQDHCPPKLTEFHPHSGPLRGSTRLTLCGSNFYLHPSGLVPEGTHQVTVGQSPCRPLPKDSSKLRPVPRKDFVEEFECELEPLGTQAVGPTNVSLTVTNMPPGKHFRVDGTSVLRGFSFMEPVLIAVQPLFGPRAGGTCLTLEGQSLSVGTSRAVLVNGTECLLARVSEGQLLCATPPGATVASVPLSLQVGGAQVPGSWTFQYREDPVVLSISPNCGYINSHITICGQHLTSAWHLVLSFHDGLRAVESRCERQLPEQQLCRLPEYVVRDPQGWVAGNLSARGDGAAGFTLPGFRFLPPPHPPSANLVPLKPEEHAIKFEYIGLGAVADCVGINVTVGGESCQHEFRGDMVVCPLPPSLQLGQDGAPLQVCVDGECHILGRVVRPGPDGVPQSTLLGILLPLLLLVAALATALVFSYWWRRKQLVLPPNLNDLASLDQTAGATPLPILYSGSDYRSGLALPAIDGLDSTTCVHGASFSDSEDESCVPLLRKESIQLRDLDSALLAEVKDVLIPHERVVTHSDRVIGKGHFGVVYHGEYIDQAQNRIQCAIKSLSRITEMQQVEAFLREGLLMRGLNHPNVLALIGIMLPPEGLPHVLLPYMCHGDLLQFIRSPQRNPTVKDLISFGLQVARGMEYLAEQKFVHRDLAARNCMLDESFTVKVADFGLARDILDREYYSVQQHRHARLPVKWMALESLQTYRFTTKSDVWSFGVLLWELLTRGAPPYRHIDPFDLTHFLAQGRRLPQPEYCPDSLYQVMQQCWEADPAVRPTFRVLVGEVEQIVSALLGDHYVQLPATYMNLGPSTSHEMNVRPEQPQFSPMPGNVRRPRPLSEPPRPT
Chain of CSNK2A1 (human) (P68400 whole entry, looked up): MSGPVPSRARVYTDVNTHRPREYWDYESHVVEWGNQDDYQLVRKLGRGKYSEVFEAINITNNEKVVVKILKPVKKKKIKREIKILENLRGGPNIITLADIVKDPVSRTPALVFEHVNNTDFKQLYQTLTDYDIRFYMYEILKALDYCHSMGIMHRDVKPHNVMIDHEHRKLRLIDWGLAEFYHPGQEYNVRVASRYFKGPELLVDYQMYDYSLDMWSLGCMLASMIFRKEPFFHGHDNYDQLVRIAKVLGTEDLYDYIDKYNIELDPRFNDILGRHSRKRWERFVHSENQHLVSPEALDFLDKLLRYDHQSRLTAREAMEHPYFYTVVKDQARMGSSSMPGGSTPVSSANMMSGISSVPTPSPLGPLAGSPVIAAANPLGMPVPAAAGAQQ
Chain of PIK3C2G (human) (O75747 whole entry, looked up): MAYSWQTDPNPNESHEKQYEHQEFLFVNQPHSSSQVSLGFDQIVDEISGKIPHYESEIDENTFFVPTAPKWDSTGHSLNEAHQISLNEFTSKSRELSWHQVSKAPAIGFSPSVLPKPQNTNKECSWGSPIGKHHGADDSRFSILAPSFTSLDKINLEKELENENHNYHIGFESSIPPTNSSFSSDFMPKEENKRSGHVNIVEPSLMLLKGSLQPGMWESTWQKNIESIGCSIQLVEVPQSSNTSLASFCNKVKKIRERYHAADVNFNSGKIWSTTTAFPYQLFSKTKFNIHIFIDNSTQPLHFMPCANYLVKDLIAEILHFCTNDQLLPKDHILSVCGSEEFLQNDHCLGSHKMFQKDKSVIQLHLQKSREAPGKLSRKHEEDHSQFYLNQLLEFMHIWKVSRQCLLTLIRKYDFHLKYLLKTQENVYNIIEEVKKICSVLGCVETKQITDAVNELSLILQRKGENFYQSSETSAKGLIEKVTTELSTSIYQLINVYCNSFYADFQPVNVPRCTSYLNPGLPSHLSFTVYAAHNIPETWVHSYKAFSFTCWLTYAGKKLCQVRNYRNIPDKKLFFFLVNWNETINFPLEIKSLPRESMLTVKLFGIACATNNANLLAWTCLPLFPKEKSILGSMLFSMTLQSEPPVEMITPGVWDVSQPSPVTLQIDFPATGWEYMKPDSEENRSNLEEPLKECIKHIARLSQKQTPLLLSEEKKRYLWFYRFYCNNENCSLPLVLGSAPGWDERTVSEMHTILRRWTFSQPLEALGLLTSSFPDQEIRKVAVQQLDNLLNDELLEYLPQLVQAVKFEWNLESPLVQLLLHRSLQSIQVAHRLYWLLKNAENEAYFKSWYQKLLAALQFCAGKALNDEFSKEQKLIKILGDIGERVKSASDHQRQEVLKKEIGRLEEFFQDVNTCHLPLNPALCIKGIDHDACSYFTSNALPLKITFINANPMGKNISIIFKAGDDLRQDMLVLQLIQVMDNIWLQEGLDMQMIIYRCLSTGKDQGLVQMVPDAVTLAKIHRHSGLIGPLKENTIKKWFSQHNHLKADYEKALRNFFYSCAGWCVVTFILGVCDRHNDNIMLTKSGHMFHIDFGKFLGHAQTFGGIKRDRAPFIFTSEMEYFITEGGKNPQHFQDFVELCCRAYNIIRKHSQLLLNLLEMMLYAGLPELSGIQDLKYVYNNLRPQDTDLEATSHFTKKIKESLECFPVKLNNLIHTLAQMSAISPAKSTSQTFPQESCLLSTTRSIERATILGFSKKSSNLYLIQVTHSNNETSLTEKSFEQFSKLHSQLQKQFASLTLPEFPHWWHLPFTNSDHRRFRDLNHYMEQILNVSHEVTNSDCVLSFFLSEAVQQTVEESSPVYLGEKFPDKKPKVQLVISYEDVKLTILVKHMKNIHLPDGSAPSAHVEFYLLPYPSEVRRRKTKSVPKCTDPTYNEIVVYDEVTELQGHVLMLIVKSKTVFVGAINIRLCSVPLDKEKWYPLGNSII
Chain of CSNK1A1L (human) (Q8N752 whole entry, looked up): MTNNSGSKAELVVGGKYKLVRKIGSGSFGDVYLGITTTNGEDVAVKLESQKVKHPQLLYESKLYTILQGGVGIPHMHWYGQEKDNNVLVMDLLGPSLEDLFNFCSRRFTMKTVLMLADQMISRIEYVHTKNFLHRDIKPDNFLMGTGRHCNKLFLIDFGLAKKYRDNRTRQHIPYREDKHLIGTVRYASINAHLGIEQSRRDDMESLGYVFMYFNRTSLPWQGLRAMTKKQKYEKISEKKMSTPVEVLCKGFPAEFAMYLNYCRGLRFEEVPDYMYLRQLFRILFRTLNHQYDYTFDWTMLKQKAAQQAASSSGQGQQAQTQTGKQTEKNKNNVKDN

SMILES | kinase still bound, per cent of control (CSNK1A1L (human)) | kinase still bound, per cent of control (CSNK1G3 (human)) | kinase still bound, per cent of control (CSNK2A1 (human)) | kinase still bound, per cent of control (EIF2AK2 (human)) | kinase still bound, per cent of control (ERBB3 (human)) | kinase still bound, per cent of control (FGFR3 (human)) | kinase still bound, per cent of control (LIMK1 (human)) | kinase still bound, per cent of control (MAP3K12 (human)) | kinase still bound, per cent of control (MAP3K13 (human)) | kinase still bound, per cent of control (MAP3K2 (human)) | kinase still bound, per cent of control (MAP3K5 (human)) | kinase still bound, per cent of control (MAP3K9 (human)) | kinase still bound, per cent of control (MAPK13 (human)) | kinase still bound, per cent of control (MAPK14 (human)) | kinase still bound, per cent of control (MAPK9 (human)) | kinase still bound, per cent of control (NEK4 (human)) | kinase still bound, per cent of control (PIK3C2B (human)) | kinase still bound, per cent of control (PIK3C2G (human)) | kinase still bound, per cent of control (PIM2 (human)) | kinase still bound, per cent of control (PIP5K1A (human)) | other results
NC(=O)Nc1cc(-c2cccc(F)c2)sc1C(=O)N[C@@H]1CCCNC1 | 2.4% | 4.6% | 0.35% | 3.4% | 28% | 16% | 62% | 9.7% | 7% | 0% | 40% | 0.15% | 100% | 100% | 38% | 22% | 16% | 64% | 57% | 0% | kinase still bound, per cent of control [1]: 0.05%; kinase still bound, per cent of control (INSR (human)): 27%; kinase still bound, per cent of control (MARK3 (human)): 0.85%; kinase still bound, per cent of control [2]: 0.6%; kinase still bound, per cent of control (MST1R (human)): 12%; kinase still bound, per cent of control (PRKCH (human)): 1.4%; kinase still bound, per cent of control (RET (human)): 0%; kinase still bound, per cent of control (RPS6KA1 KD2 (human)): 1.4%; kinase still bound, per cent of control (SRC (human)): 0.05%; kinase still bound, per cent of control (TBK1 (human)): 4.8%; kinase still bound, per cent of control (TNK2 (human)): 0.85%; kinase still bound, per cent of control (TRPM6 (human)): 74%
O=C(Nc1cccc(Nc2ncc(Br)c(NCCc3cnc[nH]3)n2)c1)N1CCCC1 | 32% | 88% | 0.3% | 31% | 41% | 1% | 38% | 21% | 9.9% | 0.25% | 24% | 0.45% | 11% | 100% | 0.3% | 9.4% | 89% | 25% | 100% | 1% | kinase still bound, per cent of control [1]: 2%; kinase still bound, per cent of control (INSR (human)): 27%; kinase still bound, per cent of control (KIT (human)): 0.15%; kinase still bound, per cent of control (MARK3 (human)): 0.3%; kinase still bound, per cent of control [2]: 2.4%; kinase still bound, per cent of control (MST1R (human)): 70%; kinase still bound, per cent of control (PRKCH (human)): 33%; kinase still bound, per cent of control (RET (human)): 0.1%; kinase still bound, per cent of control (RPS6KA1 KD2 (human)): 13%; kinase still bound, per cent of control (SRC (human)): 4%; kinase still bound, per cent of control (TBK1 (human)): 0.7%; kinase still bound, per cent of control (TNK2 (human)): 18%; kinase still bound, per cent of control (TRPM6 (human)): 76%
C[C@@H](Oc1cc(-c2cnn(C3CCNCC3)c2)cnc1N)c1c(Cl)ccc(F)c1Cl | 100% | 100% | 65% | 43% | 81% | 22% | 2.7% | 9% | 10% | 0.05% | 100% | 80% | 100% | 100% | 82% | 25% | 46% | 22% | 100% | 0.1% | kinase still bound, per cent of control (INSR (human)): 0.2%; kinase still bound, per cent of control (KIT (human)): 43%; kinase still bound, per cent of control (PRKCH (human)): 100%; kinase still bound, per cent of control (RPS6KA1 KD2 (human)): 54%; kinase still bound, per cent of control (SRC (human)): 0.55%; kinase still bound, per cent of control (TBK1 (human)): 8.7%; kinase still bound, per cent of control (TNK2 (human)): 2.8%; kinase still bound, per cent of control (TRPM6 (human)): 79%
CNC(=O)c1cc(Oc2ccc(NC(=O)Nc3ccc(Cl)c(C(F)(F)F)c3)cc2)ccn1 | 98% | 91% | 100% | 73% | 100% | 31% | 30% | 57% | 100% | 100% | 90% | 88% | 7.6% | 0.2% | 19% | 81% | 92% | 80% | 91% | 100% | kinase still bound, per cent of control (INSR (human)): 100%; kinase still bound, per cent of control (KIT (human)): 0%; kinase still bound, per cent of control (MARK3 (human)): 74%; kinase still bound, per cent of control [2]: 70%; kinase still bound, per cent of control (MST1R (human)): 74%; kinase still bound, per cent of control (PRKCH (human)): 100%; kinase still bound, per cent of control (RET (human)): 0.05%; kinase still bound, per cent of control (RPS6KA1 KD2 (human)): 100%; kinase still bound, per cent of control (TBK1 (human)): 100%; kinase still bound, per cent of control (TNK2 (human)): 96%; kinase still bound, per cent of control (TRPM6 (human)): 100%
COCC(=O)NC/C=C/c1ccc2ncnc(Nc3ccc(Oc4ccc(C)nc4)c(C)c3)c2c1 | 82% | 100% | 87% | 99% | 20% | 100% | 93% | 92% | 80% | 100% | 90% | 74% | 100% | 100% | 53% | 100% | 88% | 24% | 100% | 88% | kinase still bound, per cent of control (MARK3 (human)): 100%; kinase still bound, per cent of control [2]: 81%; kinase still bound, per cent of control (MST1R (human)): 100%; kinase still bound, per cent of control (PRKCH (human)): 100%; kinase still bound, per cent of control (RET (human)): 87%; kinase still bound, per cent of control (RPS6KA1 KD2 (human)): 73%; kinase still bound, per cent of control (SRC (human)): 97%; kinase still bound, per cent of control (TBK1 (human)): 90%; kinase still bound, per cent of control (TNK2 (human)): 78%; kinase still bound, per cent of control (TRPM6 (human)): 100%
